Results as given in publication PMC2822779, “A glycine receptor is involved in the organization of swimming movements in an invertebrate chordate” (BMC Neuroscience, 2010).

Target: T1, Ci-GlyR (Ciona intestinalis, UniProt D2KU21)
T1 construct: single subunit expressed alone; no tag stated; cDNA from hatched larvae
T1 sequence (D2KU21 25-491): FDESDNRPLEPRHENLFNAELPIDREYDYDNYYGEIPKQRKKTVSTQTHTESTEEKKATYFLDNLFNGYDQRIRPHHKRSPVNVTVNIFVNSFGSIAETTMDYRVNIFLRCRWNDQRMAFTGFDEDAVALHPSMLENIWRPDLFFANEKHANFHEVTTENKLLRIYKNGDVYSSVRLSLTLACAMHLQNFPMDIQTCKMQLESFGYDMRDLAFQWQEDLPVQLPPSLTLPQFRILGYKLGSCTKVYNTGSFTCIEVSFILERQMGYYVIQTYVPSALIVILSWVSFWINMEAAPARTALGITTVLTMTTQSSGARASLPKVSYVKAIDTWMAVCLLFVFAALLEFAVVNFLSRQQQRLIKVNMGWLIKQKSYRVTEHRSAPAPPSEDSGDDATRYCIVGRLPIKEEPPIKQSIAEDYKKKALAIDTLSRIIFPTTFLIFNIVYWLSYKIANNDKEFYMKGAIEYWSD
Assay: two-electrode voltage clamp, Xenopus oocytes
Format: cell-based

EC50: ~750 µM
Compound: NCC(=O)O [glycine]
